Consider 26 molecules from PubChem BioAssay AID1599 (NINDS Approved Drug Screening Program, 2009).

As usually defined, the pEC50 is −log10 of the EC50, conventionally taken in molar units.

The assay has as its system C. elegans polyQ-huntingtin mechanosensory neurons, touch response. Description: restoration of touch response, mutant HTT neurons – whole organism, C. elegans mechanosensory neurons, N-terminal huntingtin (AID 1599).

The structures appear in SMILES notation. pEC50: −log10 of the molar value.

In the case of `COc1ccc2cc(CCC(C)=O)ccc2c1`, the pEC50 is 5.00. Under `OCCN1CCN(CCCN2c3ccccc3Sc3ccc(Cl)cc32)CC1` stands 6.00; under `C=Cc1c(C)c2cc3[nH]c(cc4nc(cc5nc(cc1[nH]2)C(C)=C5CCC(=O)O)C(CCC(=O)O)=C4C)c(C)c3C=C`, 8.30.

Consider `CCn1cc(C(=O)O)c(=O)c2cc3c(cc21)OCO3`, for which the pEC50 is 5.64. `O=C1c2ccc(O)c(O)c2C(=O)c2c(O)ccc(O)c21` had a pEC50 of 5.55. Then `CNCCC=C1c2ccccc2CCc2ccccc21`, with 5.74. Under `CCCCNc1ccc(C(=O)OCCN(C)C)cc1` stands 5.24; under `Cc1cc(O)cc(C)c1Cl`, 5.48; under `C[C@@H]1O[C@@H](O[C@H]2[C@H](Oc3cc(O)c4c(c3)O[C@H](c3ccc(O)cc3)CC4=O)O[C@H](CO)[C@@H](O)[C@@H]2O)[C@H](O)[C@H](O)[C@H]1O`, 6.10. As for `O=c1oc2ccccc2c(O)c1Cc1c(O)c2ccccc2oc1=O`, the pEC50 was 5.38. As for `Clc1ccc(COC(Cn2ccnc2)c2ccc(Cl)cc2Cl)cc1` (stereo unspecified), the pEC50 was 5.52.

For `Clc1ccc(C(OCCN2CCCCC2)c2ccccc2)cc1` (stereo unspecified), the pEC50 was 4.55. Then `CC1=C2C(=CO[C@H](C)[C@H]2C)C(=O)C(C(=O)O)=C1O`, with 4.40; and `CN1CCN(C2=Nc3cc(Cl)ccc3Nc3ccccc32)CC1`, with 5.36. Then `CC(C)(C)c1ccc(C(O)CCCN2CCC(C(O)(c3ccccc3)c3ccccc3)CC2)cc1` (stereo unspecified), with 6.05; and `O=c1c2ccccc2[se]n1-c1ccccc1`, with 6.70. Under `COc1ccc(Cl)cc1C(=O)NCCc1ccc(S(=O)(=O)NC(=O)NC2CCCCC2)cc1` stands 5.64; under `CN(C)CCCN1c2ccccc2CCc2ccc(Cl)cc21`, 4.55. The molecule `C[C@@]1(C(=O)O)CC[C@]2(C)CC[C@]3(C)C4=CC=C5C=C(O)C(=O)C=C5[C@]4(C)CC[C@@]3(C)[C@@H]2C1` gave a pEC50 of 6.40. Under `CC1=NN(c2ccccc2)C(=O)C1` stands 7.80. For the molecule `Oc1c(Cl)cc(Cl)c2cccnc12`, the pEC50 was 5.52. Under `Cc1cc2cc3c(C)cc(=O)oc3c(C)c2o1` stands 5.42; under `CC(C)NNC(=O)c1ccncc1`, 4.80.

In turn, `CNc1ccc2oc(C[C@@H]3OC4(CC[C@@H]3C)O[C@H](C(C)C(=O)c3ccc[nH]3)[C@H](C)C[C@H]4C)nc2c1C(=O)O` (stereo partly specified) gave a pEC50 of 5.26. As to `CC(=O)OCC1=C(C(=O)O)N2C(=O)[C@@H](NC(=O)CCCC(N)C(=O)O)C2SC1` (stereo partly specified), the negative-log EC50 (pEC50) was 5.70.

`CN1CCC(=C2c3ccccc3Sc3ccccc32)CC1` had a pEC50 of 4.62.
